In PMC9102502, “The Influence of Selected Antipsychotic Drugs on Biochemical Aspects of Alzheimer’s Disease” (International Journal of Molecular Sciences, 2022):
Read-outs that look alike come from different tables or passages of the source.

Key:
[1] = target: T1, human erythrocyte acetylcholinesterase (Homo sapiens, UniProt P22303); experiment: AChE inhibition, modified Ellman's method; format: biochemical
T1 construct: solution of hemolyzed erythrocytes diluted 400-fold; from tissue; host or cells: hemolyzed erythrocytes from blood of healthy human donors
Method: (§1) The activity of both cholinesterases (AChE and BuChE) were assessed spectrophotometrically according to the Ellman’s method with some modifications by Worek et al.. This test development included experimental determination of the optimal testing conditions. For all measurements, 37 °C was used as the best temperature for enzymatic determinations in material of human origin.
(§2) The solution of plasma 200-fold diluted with 0.9% NaCl and solution of hemolyzed erythrocytes diluted 400-fold with 0.9% were incubated (37 °C, 15 min) with 5 μL DTNB (0.01 mol/L) and 10 μL tested compound at a wider range of concentration than the therapeutic range in order to assess the overall effect of the compound on human esterases (AChE and BuChE). The controls without antipsychotics, containing only DTNB and diluted plasma or diluted solution of hemolyzed erythrocytes, were prepared. […] The final volume of a sample was 500 μL. […] The maximal velocity of the reaction was determined on the basis of changes in absorbance over time.
(§3) AChE SI (selectivity index) was calculated by using the following formula: SI = IC50 of BuChE/IC50 of AChE. However, BuChE SI was defined as IC50 of AChE/IC50 of BuChE. Maximal velocity (Vmax) and the Michaelis constant (Km) were calculated with the use of linear regression—according to the Hanes–Woolf plot.

[2] = target: T2, human plasma butyrylcholinesterase (Homo sapiens, UniProt P06276); experiment: BuChE inhibition, modified Ellman's method; format: biochemical
T2 construct: The solution of plasma 200-fold diluted with 0.9% NaCl; from tissue; host or cells: citrated plasma from blood of healthy human donors
Method: as §1, §2, §3

[3] = target: T3, recombinant human β-amyloid (1–42) (Homo sapiens, UniProt P05067); experiment: Beta-amyloid aggregation, Thioflavin T fluorescence; format: biochemical
T3 construct: recombinant human β-amyloid (1–42; ultrapure); purchased Sigma-Aldrich (St. Louis, MO, USA)
Method: Aβ42 peptide was dissolved in DMSO and left to hydrate for a few minutes. The solution was centrifuged at 10,000 rpm for 5 min at 4 °C to separate any precipitated material. The solution at a concentration of 220 μmol/L was stored in small aliquots at a temperature of −30 °C and before each experiment it was restored at 37 °C for 15 min. Test samples containing Aβ42 solution at the final concentration of 20 μmol/L was incubated with antipsychotics at concentrations equaling their TPC and 1/2 × TPC (v = 10 µL). The final volume of the test samples was 100 μL. The positive control constituted a sample of Aβ42 peptide, whereas the negative control contained tannic acid at the final concentrations of 0.1 µmol/L and 10 µmol/L. The fibrillation reaction was set up by addition of thioflavin ThT dye at a concentration of 5 µmol/L. The fluorescence intensity was measured at room temperature with Ex/Em = 440 nm/484 nm (Synergy H1; BioTek, Winooski, VT, USA). The measurements of fluorescence intensity expressed as relative fluorescence units (RFU) were taken at 10, 30, 60 and 90 min and then after 24 and 48 h. The fluorescence intensity measured for control equaled 100% of Aβ aggregation and it was used to estimate the inhibitory properties of the tested antipsychotics.

[4] = system: HUVEC cells; experiment: WST-1 viability under AAPH-induced oxidative stress, HUVEC; format: cell-based, human; settings: AAPH 17.5 mmol/L, relative to pure medium control
Method: (§4) WST-1 assay (Takara, Takara Bio Europe, Saint-Germain-en-Laye, France) was used to assess the effects of antipsychotics on the growth of HUVEC and astrocytes. The experiments were conducted as described previously. HUVEC were seeded at a density of 7500 cells, and astrocytes at 5000 cells per well on 96-well microplates and cultured for 24 h followed by treatment with compounds at ½ × TPCmax and TPCmax or pure medium as a control (v = 100 μL) for another 24 h (37 °C, 5% CO2). Subsequently, the cells were washed with culture medium (100 μL) and WST-1 reagent diluted in medium (10 μL of reagent + 90 μL of medium) was added. The plates were incubated at 37 °C in 5% CO2 for another 90 min for HUVEC and 60 min for astrocytes. The absorbance was read at 450 nm using a microplate reader (iMARK, Bio-Rad, Hercules, CA, USA). The cells viability was expressed as a percentage of the control samples which constituted 100% viability.
(§5) Moreover, the WST-1 assay was used to evaluate potential protective effects of antipsychotics on the growth of HUVEC and astrocytes under conditions of AAPH-induced oxidative stress. The experimental conditions were the same as in viability studies. AA at the final concentration of 10 μg/mL was used as an antioxidant control. After reaching the confluence, the antipsychotics were added at concentrations equaling ½ × TPCmax and TPCmax. After 1 h incubation under standard conditions, 50 μL AAPH was added to the wells containing tested compounds or AA. The AAPH concentration was chosen on the basis of preliminary experiments—17.5 mmol/L in HUVEC experiments, and 15.0 mmol/L in the case of astrocytes.

[5] = system: astrocytes; experiment: WST-1 viability under AAPH-induced oxidative stress, astrocytes; format: cell-based, human; settings: for astrocyte viability under AAPH: ½ × TPC (benperidol 5 μg/L, bromperidol 12.5 μg/L), AAPH 15 mmol/L
Method: as §4, §5

[6] = target: AChE (Homo sapiens, UniProt P22303); experiment: Synergism of antipsychotics with donepezil/rivastigmine (binary mixtures), AChE; settings: ComboSyn;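 note: antipsychotic concentration kept fixed across all measurements, selected from estimated therapeutic plasma levels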
[7] = target: T4, BuChE (Homo sapiens, UniProt P06276); experiment: Synergism of antipsychotics with donepezil/rivastigmine (binary mixtures), BuChE; settings: ComboSyn;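 note: combination index derived by median-effect analysis of combined drug effects on the cholinesterase, with values below 1 meaning synergism, exactly 1 additivity and above 1 antagonism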
[8] = system: BuChE; settings: read-out: IC50 BuChE, cited from earlier work
[9] = system: AChE; settings: read-out: IC50 AChE, cited from earlier work
[10] = target: T4, BuChE; experiment: Kinetic parameters of enzymatic reaction (Hanes–Woolf), BuChE; format: biochemical; parameters: The solution of plasma 200-fold diluted with 0.9% NaCl; from tissue; host or cells: citrated plasma from blood of healthy human donors
Method: Kinetic parameters were obtained on the basis of three individual experiments carried out on different biological materials. For this purpose, various concentrations of substrates (ATC and BTC) were used in experiments. The type of inhibition and kinetic parameters of enzymatic reactions were obtained by linear regression using the Hanes–Woolf equations.
as §3

[11] = ½ × TPC (bromperidol 12.5 μg/L, quetiapine 200 μg/L)
[12] = donepezil 0.005 μmol/L + antipsychotic at TPCmax, CI < 1 synergism, > 1 antagonism
[13] = donepezil 0.01 μmol/L + antipsychotic at TPCmax
[14] = donepezil 0.02 μmol/L + antipsychotic at TPCmax
[15] = donepezil 0.05 μmol/L + antipsychotic at TPCmax
[16] = donepezil 0.1 μmol/L + antipsychotic at TPCmax
[17] = rivastigmine 5 μmol/L + antipsychotic at TPCmax
[18] = rivastigmine 10 μmol/L + antipsychotic at TPCmax
[19] = rivastigmine 15 μmol/L + antipsychotic at TPCmax
[20] = rivastigmine 25 μmol/L + antipsychotic at TPCmax
[21] = rivastigmine 40 μmol/L + antipsychotic at TPCmax
[22] = rivastigmine 50 μmol/L + antipsychotic at TPCmax
[23] = rivastigmine 75 μmol/L + antipsychotic at TPCmax
[24] = rivastigmine 100 μmol/L + antipsychotic at TPCmax
[25] = donepezil 2 μmol/L + antipsychotic at TPCmax
[26] = donepezil 5 μmol/L + antipsychotic at TPCmax
[27] = donepezil 10 μmol/L + antipsychotic at TPCmax
[28] = donepezil 20 μmol/L + antipsychotic at TPCmax
[29] = donepezil 100 μmol/L + antipsychotic at TPCmax
[30] = rivastigmine 0.05 μmol/L + antipsychotic at TPCmax
[31] = rivastigmine 0.1 μmol/L + antipsychotic at TPCmax
[32] = rivastigmine 0.25 μmol/L + antipsychotic at TPCmax
[33] = rivastigmine 0.5 μmol/L + antipsychotic at TPCmax
[34] = rivastigmine 0.75 μmol/L + antipsychotic at TPCmax
[35] = rivastigmine 1 μmol/L + antipsychotic at TPCmax
[36] = rivastigmine 2.5 μmol/L + antipsychotic at TPCmax
[37] = reference values according to the literature ref 28
[38] = reference values according to the literature ref 31
[39] = reference values according to the literature ref 32
[40] = reference values according to the literature ref 33

T3 sequence (P05067 672-713 limits assumed): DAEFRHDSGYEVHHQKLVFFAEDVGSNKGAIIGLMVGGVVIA
Chain of AChE (P22303 32-617 isoform P22303-2 limits assumed): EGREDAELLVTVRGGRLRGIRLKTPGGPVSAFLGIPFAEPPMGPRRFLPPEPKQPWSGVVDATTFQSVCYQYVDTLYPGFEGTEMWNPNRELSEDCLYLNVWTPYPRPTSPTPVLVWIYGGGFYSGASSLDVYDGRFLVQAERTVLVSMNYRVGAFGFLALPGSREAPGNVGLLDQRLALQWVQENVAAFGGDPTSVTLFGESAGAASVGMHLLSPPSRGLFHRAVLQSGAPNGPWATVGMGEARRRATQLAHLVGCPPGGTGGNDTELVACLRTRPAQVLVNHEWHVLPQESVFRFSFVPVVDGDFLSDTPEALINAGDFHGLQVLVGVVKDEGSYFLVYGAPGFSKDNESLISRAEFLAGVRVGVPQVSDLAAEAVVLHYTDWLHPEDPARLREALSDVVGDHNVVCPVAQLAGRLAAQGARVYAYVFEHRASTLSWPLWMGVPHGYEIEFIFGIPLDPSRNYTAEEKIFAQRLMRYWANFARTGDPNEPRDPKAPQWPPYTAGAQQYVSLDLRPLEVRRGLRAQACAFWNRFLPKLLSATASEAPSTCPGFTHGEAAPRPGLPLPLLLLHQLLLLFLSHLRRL
T1 sequence (P22303 32-617 isoform P22303-2 limits assumed): as above
T4 sequence (P06276 29-602): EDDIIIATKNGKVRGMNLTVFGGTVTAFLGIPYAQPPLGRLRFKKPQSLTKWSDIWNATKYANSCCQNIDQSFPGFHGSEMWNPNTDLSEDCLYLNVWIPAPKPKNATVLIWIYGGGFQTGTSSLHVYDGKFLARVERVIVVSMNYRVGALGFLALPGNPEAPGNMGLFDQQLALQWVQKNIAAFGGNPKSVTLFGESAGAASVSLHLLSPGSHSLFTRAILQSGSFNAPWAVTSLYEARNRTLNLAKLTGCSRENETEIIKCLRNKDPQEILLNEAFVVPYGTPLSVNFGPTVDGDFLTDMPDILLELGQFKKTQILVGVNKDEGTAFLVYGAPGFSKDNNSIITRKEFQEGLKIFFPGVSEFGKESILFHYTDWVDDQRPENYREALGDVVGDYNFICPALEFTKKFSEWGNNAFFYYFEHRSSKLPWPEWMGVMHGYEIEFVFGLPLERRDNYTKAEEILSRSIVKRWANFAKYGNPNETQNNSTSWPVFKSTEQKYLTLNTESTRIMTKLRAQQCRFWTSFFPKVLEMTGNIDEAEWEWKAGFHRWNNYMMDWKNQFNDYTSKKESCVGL
T2 sequence (P06276 29-602): as above

| Compound | viability of HUVEC under AAPH [4, 11] [%] | astrocyte viability under AAPH [5] [%] | CI (combination index), AChE [6, 12] | CI (combination index), AChE [6, 13] | CI (combination index), AChE [6, 14] | CI (combination index), AChE [6, 15] | CI (combination index), AChE [6, 16] | CI (combination index), AChE [6, 17] | CI (combination index), AChE [6, 18] | CI (combination index), AChE [6, 19] | CI (combination index), AChE [6, 20] | CI (combination index), AChE [6, 21] | CI (combination index), AChE [6, 22] | CI (combination index), AChE [6, 23] | CI (combination index), AChE [6, 24] | CI (combination index), BuChE [7, 25] | CI (combination index), BuChE [7, 26] | CI (combination index), BuChE [7, 27] | CI (combination index), BuChE [7, 28] | CI (combination index), BuChE [7, 29] | further results |
| --- | --- | --- | --- | --- | --- | --- | --- | --- | --- | --- | --- | --- | --- | --- | --- | --- | --- | --- | --- | --- | --- |
| O=C(CCCN1CCC(n2c(O)nc3ccccc32)CC1)c1ccc(F)cc1 [Benperidol, benperidol] | 82.9 | 81.9 | 0.83 | 1.09 | 1.04 | 1.02 | 1.24 | 0.31 | 0.44 | 0.48 | 0.57 | 0.62 | 0.63 | 0.66 | 0.65 | 0.40 | 0.50 | 0.57 | 0.60 | 0.84 | AChE reaction velocity ([1]; 75 µg/L, control 0.258 ± 0.016 A/min): 0.250 ± 0.015 A/min; AChE reaction velocity ([1]; 100 µg/L, control 0.258 ± 0.016 A/min): 0.239 ± 0.014 A/min; BuChE reaction velocity ([2]; 75 µg/L, control 0.302 ± 0.029 A/min): 0.283 ± 0.029 A/min; BuChE reaction velocity ([2]; 100 µg/L, control 0.302 ± 0.029 A/min): 0.279 ± 0.021 A/min; inhibition of Aβ ([3]; 10 μg/L, time range from 10 min to 24 h incubation): 42.1–53.3%; astrocyte viability compared with the control (pure AAPH) ([5]; benperidol 5 and 10 μg/L, penfluridol 12.5 μg/L, pimozide 15 μg/L, promazine 25 and 50 μg/L): statistically significant increase; CI (combination index), BuChE ([7]; donepezil 50 μmol/L + antipsychotic at TPCmax): 0.69; CI (combination index), BuChE [7, 30]: 0.27; CI (combination index), BuChE [7, 31]: 0.32; CI (combination index), BuChE [7, 32]: 0.56; CI (combination index), BuChE [7, 33]: 0.91; CI (combination index), BuChE [7, 34]: 0.95; CI (combination index), BuChE [7, 35]: 1.00; CI (combination index), BuChE [7, 36]: 1.08; CI (combination index), BuChE [7, 17]: 1.00 |
| O=C(CCCN1CCC(O)(c2ccc(Br)cc2)CC1)c1ccc(F)cc1 [Bromperidol, bromperidol] | 66.8 | 68.9 | 0.07 | 0.78 | 0.81 | 0.81 | 0.80 | 0.32 | 0.38 | 0.46 | 0.50 | 0.53 | 0.49 | 0.55 | 0.60 | 0.43 | 0.52 | 0.57 | 0.70 | 0.89 | AChE reaction velocity ([1]; 200 µg/L, control 0.236 ± 0.032 A/min): 0.228 ± 0.029 A/min; BuChE reaction velocity ([2]; 200 µg/L, control 0.349 ± 0.013 A/min): 0.230 ± 0.023 A/min; percentage value of Aβ inhibition ([3]; 12.5 μg/L, 48 h, compared with the control (100% Aβ aggregation)): 51.2%; effect on Aβ aggregation after a longer incubation time ([3]; 24 and 48 h, both tested concentrations): substantially inhibit; viability of HUVEC under AAPH ([4]; TPC (bromperidol 25 μg/L, quetiapine 400 μg/L)): 82.5%; CI (combination index), BuChE [7, 30]: 0.18; CI (combination index), BuChE [7, 31]: 0.30; CI (combination index), BuChE [7, 32]: 0.57; CI (combination index), BuChE [7, 33]: 0.74; CI (combination index), BuChE [7, 34]: 0.86; CI (combination index), BuChE [7, 35]: 0.92; CI (combination index), BuChE [7, 36]: 0.96; CI (combination index), BuChE [7, 17]: 0.96 |
| CCN(C)C(=O)Oc1cccc([C@H](C)N(C)C)c1 [Rivastigmine, rivastigmine] |  |  |  |  |  |  |  |  |  |  |  |  |  |  |  |  |  |  |  |  | IC50 [9, 37]: […]; IC50 [9, 38]: […]; IC50 [9, 39]: […]; IC50 [9, 40]: […]; IC50 [8, 37]: […]; IC50 [8, 38]: […]; IC50 [8, 39]: […]; IC50 [8, 40]: […]; Vmax(i) BuChE ([10]; compound at its IC50): […]; type of inhibition of BuChE ([10]; from Km(i), Vmax(i) vs Km, Vmax, mixed inhibition): noncompetitively |
